Laboratory results as given in patent publication US20100267561A1, “HERBICIDAL PYRIDAZINONE DERIVATIVES” (priority 2007, published 2010).

Tests used:
Type in all cases: in vivo
[1] = system: barnyardgrass (Echinochloa crus-galli); assay: Test B flooded paddy test plant response
Outline: (§1)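 Rice, umbrella sedge, ducksalad and barnyardgrass at 2-leaf stage; pots flooded to 3 cm, compounds applied into paddy water, depth held throughout. Greenhouse 13 to 15 days, then visual rating vs untreated controls on 0–100 scale (0 no effect, 100 complete control); dash means no test result.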

[2] = system: ducksalad (Heteranthera limosa); assay: Test B flooded paddy test plant response; conditions: Flood (flooded paddy test), scale 0 to 100, 0 no effect, 100 complete control
Outline: as §1

[3] = system: umbrella sedge (Cyperus difformis); assay: Test B flooded paddy test plant response
Outline: as §1

rice (Oryza sativa) = assay: Test B flooded paddy test plant response
Outline: as §1

wild oat (Avena fatua) = assay: Test B pre-/postemergence plant response
Outline: (§2)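 Preemergence and postemergence (plants 2-18 cm, 1- to 4-leaf stage) applications used test chemicals in a non-phytotoxic solvent with surfactant. Plants were held in a greenhouse 13 to 15 days, then rated visually against controls on a 0-100 scale (0 no effect, 100 complete control).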

[4] = system: downy bromegrass (Bromus tectorum); assay: Test B pre-/postemergence plant response; conditions: for Bromegrass, Downy plant response rating: 8 g ai/ha
Outline: as §2

corn (Zea mays) = assay: Test B pre-/postemergence plant response
Outline: as §2

[5] = system: wheat (Triticum aestivum); assay: Test B pre-/postemergence plant response
Outline: as §2

[6] = system: velvetleaf (Abutilon theophrasti); assay: Test B pre-/postemergence plant response
Outline: as §2

[7] = system: surinam grass (Brachiaria decumbens); assay: Test B pre-/postemergence plant response
Outline: as §2

[8] = system: green foxtail (Setaria viridis); assay: Test B pre-/postemergence plant response
Outline: as §2

[9] = system: common (oilseed) sunflower (Helianthus annuus); assay: Test B pre-/postemergence plant response; conditions: Preemergence; for Sunflower plant response rating: scale 0 to 100
Outline: as §2

[10] = system: large crabgrass (Digitaria sanguinalis); assay: Test B pre-/postemergence plant response
Outline: as §2

[11] = system: morningglory (Ipomoea coccinea); assay: Test B pre-/postemergence plant response
Outline: as §2

[12] = Flood (flooded paddy test), 62 g ai/ha, scale 0 to 100, 0 no effect, 100 complete control
[13] = Flood (flooded paddy test), 125 g ai/ha, scale 0 to 100, 0 no effect, 100 complete control
[14] = Flood (flooded paddy test), 250 g ai/ha, scale 0 to 100, 0 no effect, 100 complete control
[15] = Flood, 31 g ai/ha, scale 0 to 100
[16] = 8 g ai/ha, postemergence, 0-100 scale
[17] = Postemergence, 16 g ai/ha, scale 0 to 100
[18] = Postemergence, 31 g ai/ha, scale 0 to 100
[19] = Postemergence, 62 g ai/ha, scale 0 to 100, 0 no effect, 100 complete control
[20] = Preemergence, 31 g ai/ha, scale 0 to 100 (0 no effect, 100 complete control)
[21] = Preemergence, 62 g ai/ha, 0 to 100 scale, 0 no effect, 100 complete control
[22] = Preemergence, 8 g ai/ha, scale 0 to 100
[23] = Preemergence, 16 g ai/ha, scale 0 to 100
[24] = 31 g ai/ha, scale 0 to 100 (0 no effect, 100 complete control)
[25] = 62 g ai/ha, 0 to 100 scale, 0 no effect, 100 complete control

Cc1cc(-c2ccc(Cl)cc2)nn1-c1c(OC(=O)OCC(C)C)cnn(C)c1=O [Compound 57]
65: Plant response rating, Sedge, Umbrella [3, 12] | Plant response rating, Bromegrass, Downy [4, 20] | Surinam Grass plant response rating [7, 16]
70: Plant response rating, Ducksalad ([2]; 250 g ai/ha) | Plant response rating, Oat, Wild (wild oat (Avena fatua); [20]) | Plant response rating, Bromegrass, Downy [4, 21] | Foxtail, Green plant response rating [8, 22]
50: Plant response rating, Bromegrass, Downy [4, 18] | Plant response rating, Wheat [5, 21]
45: Plant response rating, Sedge, Umbrella [3, 15] | Plant response rating, Wheat [5, 17]
60: Oat, Wild plant response rating (wild oat (Avena fatua); [23]) | Plant response rating, Bromegrass, Downy [4, 19] | Corn plant response rating (corn (Zea mays); [23]) | Surinam Grass plant response rating [7, 22]
30: Wheat plant response rating [5, 16]
10: Plant response rating, Rice (rice (Oryza sativa); [13])
85: Oat, Wild plant response rating (wild oat (Avena fatua); [16]) | Plant response rating, Oat, Wild (wild oat (Avena fatua); [17]) | Plant response rating, Corn (corn (Zea mays); [20])
98: Plant response rating, Oat, Wild (wild oat (Avena fatua); [19]) | Plant response rating, Corn (corn (Zea mays); [18]) | Surinam Grass plant response rating [7, 23] | Plant response rating, Crabgrass, Large [10, 18] | Plant response rating, Crabgrass, Large [10, 20]
0: Plant response rating, Barnyardgrass [1, 12] | Plant response rating, Barnyardgrass [1, 13] | Plant response rating, Barnyardgrass [1, 14] | Plant response rating, Barnyardgrass [1, 15] | Plant response rating, Ducksalad ([2]; 62 g ai/ha) | Plant response rating, Ducksalad ([2]; 125 g ai/ha) | Plant response rating, Rice (rice (Oryza sativa); [12]) | Plant response rating, Rice (rice (Oryza sativa); [15]) | Oat, Wild plant response rating (wild oat (Avena fatua); [22]) | Bromegrass, Downy plant response rating ([4]; postemergence, 0-100 scale) | Plant response rating, Bromegrass, Downy ([4]; Preemergence, 16 g ai/ha, scale 0 to 100 (0 no effect, 100 complete control)) | Bromegrass, Downy plant response rating ([4]; Preemergence, scale 0 to 100) | Corn plant response rating (corn (Zea mays); [16]) | Plant response rating, Corn (corn (Zea mays); [17]) | Corn plant response rating (corn (Zea mays); [22]) | Velvetleaf plant response rating [6, 16] | Plant response rating, Velvetleaf [6, 17] | Plant response rating, Velvetleaf [6, 18] | Plant response rating, Velvetleaf [6, 19] | Plant response rating, Velvetleaf [6, 20] | Plant response rating, Velvetleaf [6, 21] | Velvetleaf plant response rating [6, 22] | Velvetleaf plant response rating [6, 23] | Plant response rating, Sunflower [9, 24] | Plant response rating, Sunflower [9, 25] | Sunflower plant response rating ([9]; 8 g ai/ha) | Sunflower plant response rating ([9]; 16 g ai/ha) | Crabgrass, Large plant response rating [10, 22] | Crabgrass, Large plant response rating [10, 23] | Morningglory plant response rating [11, 16] | Plant response rating, Morningglory [11, 17] | Plant response rating, Morningglory [11, 18] | Plant response rating, Morningglory [11, 19] | Plant response rating, Morningglory [11, 20] | Plant response rating, Morningglory [11, 21] | Morningglory plant response rating [11, 22] | Morningglory plant response rating [11, 23]
20: Plant response rating, Bromegrass, Downy [4, 17]
95: Plant response rating, Oat, Wild (wild oat (Avena fatua); [18]) | Plant response rating, Corn (corn (Zea mays); [21]) | Plant response rating, Foxtail, Green [8, 17] | Plant response rating, Crabgrass, Large [10, 17]
15: Plant response rating, Rice (rice (Oryza sativa); [14]) | Wheat plant response rating [5, 23]
75: Plant response rating, Sedge, Umbrella [3, 13] | Plant response rating, Surinam Grass [7, 17] | Crabgrass, Large plant response rating [10, 16]
90: Plant response rating, Wheat [5, 18] | Plant response rating, Wheat [5, 19]
80: Plant response rating, Sedge, Umbrella [3, 14] | Plant response rating, Oat, Wild (wild oat (Avena fatua); [21]) | Foxtail, Green plant response rating [8, 16]
40: Plant response rating, Wheat [5, 20]
100: Plant response rating, Corn (corn (Zea mays); [19]) | Plant response rating, Surinam Grass [7, 18] | Plant response rating, Surinam Grass [7, 19] | Plant response rating, Surinam Grass [7, 20] | Plant response rating, Surinam Grass [7, 21] | Plant response rating, Foxtail, Green [8, 18] | Plant response rating, Foxtail, Green [8, 19] | Plant response rating, Foxtail, Green [8, 20] | Plant response rating, Foxtail, Green [8, 21] | Foxtail, Green plant response rating [8, 23] | Plant response rating, Crabgrass, Large [10, 19] | Plant response rating, Crabgrass, Large [10, 21]

C#CCOC(=O)Oc1cnn(C)c(=O)c1-n1nc(-c2ccc(Cl)cc2)cc1C [Compound 58]
100: Plant response rating, Surinam Grass [7, 21] | Plant response rating, Foxtail, Green [8, 20] | Plant response rating, Foxtail, Green [8, 21] | Foxtail, Green plant response rating [8, 22] | Foxtail, Green plant response rating [8, 23] | Plant response rating, Crabgrass, Large [10, 21]
80: Plant response rating, Oat, Wild (wild oat (Avena fatua); [20]) | Oat, Wild plant response rating (wild oat (Avena fatua); [22]) | Oat, Wild plant response rating (wild oat (Avena fatua); [23]) | Plant response rating, Corn (corn (Zea mays); [21]) | Plant response rating, Wheat [5, 21]
60: Plant response rating, Rice (rice (Oryza sativa); [14])
90: Plant response rating, Crabgrass, Large [10, 20]
70: Plant response rating, Barnyardgrass [1, 14]
55: Plant response rating, Corn (corn (Zea mays); [20])
65: Plant response rating, Bromegrass, Downy [4, 20]
95: Plant response rating, Oat, Wild (wild oat (Avena fatua); [21]) | Surinam Grass plant response rating [7, 22]
75: Crabgrass, Large plant response rating [10, 23]
98: Plant response rating, Surinam Grass [7, 20] | Surinam Grass plant response rating [7, 23]
50: Crabgrass, Large plant response rating [10, 22]
45: Plant response rating, Ducksalad ([2]; 250 g ai/ha)
30: Plant response rating, Barnyardgrass [1, 12]
0: Plant response rating, Ducksalad ([2]; 62 g ai/ha) | Plant response rating, Sedge, Umbrella [3, 12] | Plant response rating, Sedge, Umbrella [3, 14] | Plant response rating, Rice (rice (Oryza sativa); [12]) | Bromegrass, Downy plant response rating ([4]; Preemergence, scale 0 to 100) | Corn plant response rating (corn (Zea mays); [22]) | Corn plant response rating (corn (Zea mays); [23]) | Wheat plant response rating [5, 23] | Plant response rating, Velvetleaf [6, 20] | Plant response rating, Velvetleaf [6, 21] | Velvetleaf plant response rating [6, 22] | Velvetleaf plant response rating [6, 23] | Plant response rating, Sunflower [9, 24] | Plant response rating, Sunflower [9, 25] | Sunflower plant response rating ([9]; 8 g ai/ha) | Sunflower plant response rating ([9]; 16 g ai/ha) | Plant response rating, Morningglory [11, 20] | Plant response rating, Morningglory [11, 21] | Morningglory plant response rating [11, 22] | Morningglory plant response rating [11, 23]
40: Plant response rating, Wheat [5, 20]
85: Plant response rating, Bromegrass, Downy [4, 21]
